From patent US20210244813A1, “ADJUVANT AND VACCINE COMPOSITIONS” (priority 2012, published 2021)

Tested on: IL-4
Test: Relative IL-4 mRNA expression (real time RT-PCR) in cultured splenic lymphocytes of vaccinated mice
Format: cell-based
Conditions: vaccine treatment group; culture with LAP, LAP/QAC or OVA

Substance: OVA
- IL-4 expression normalized to ARBP at 48 hours in culture: Increased IL-4 expression was observed for some animals
